# Test results taken from a melting point compilation (Tetko et al.; mined from patent text by program, amines drawn as free bases though some values may be those of a salt).
# Non-standard residues stand in square brackets, D forms with d. Residues, ends and D or L forms follow the SMILES beside them. *: point of attachment. 1Nal = N[C@@H](Cc1cccc2ccccc12)C(=O)O; Leu(ol) = CC(C)C[C@H](N)CO; Cbz = O=C(OCc1ccccc1)*
row,melting point,SMILES
1,164 °C,N#Cc1nn(-c2c(Cl)cc(Cl)cc2Cl)cc1C1CC1(Br)Br (centres undefined)
2,146 to 148 °C,CC(=O)Cc1cc2c(cc1C(=O)c1ccc([N+](=O)[O-])c(C)c1)OCO2
3,201 to 202 °C,CC(=O)Nc1c(C(=O)c2cccc(F)c2)[nH]c2cc(Cl)ccc12
4,229 °C,CS(=O)(=O)c1cc(CCC(=O)O)nc(-c2nc(=O)c3ccc(Cl)cc3s2)c1
5,86 to 89 °C,CCOC(=O)C1=C(COCC(O)CCO)NC(C)=C(C(=O)OC)C1c1cccc(Cl)c1Cl (centres undefined)
6,71 to 72 °C,CCN(C)C(=S)Nc1cc(Cl)c(OCCC[Si](C)(C)C)cc1C
7,159 to 161 °C,CC(C(N)=O)c1ccc2c(c1)C(=O)Cc1cc(C(F)(F)F)ccc1S2 (centres undefined)
8,229 to 231 °C,Cc1ccc(C(=O)NCc2ccc3c(c2)CN(C2CCC(=O)NC2=O)C3=O)cc1Cl (centres undefined)
9,265 °C,Nc1ccc2ncnc(Nc3cc(Cl)c(Cl)cc3F)c2c1
10,272 to 274 °C,CN1c2cc(Cl)ccc2-c2nc3ccccc3c3cccc1c23
11,192 to 193 °C,Cn1cc(-c2cc3cccnc3[nH]2)c2cc(OCCCO)ccc21
12,184 to 186 °C,CC1=C(c2ccncc2)C(C)CC(=O)N1 (centres undefined)
13,249 to 251 °C,O=C(Nc1ccc(Cl)cn1)c1nc(-c2ccccc2)c2ccccc2c1O
14,111 to 112 °C,COc1ccc2c(-c3ccccc3)c(C(=O)c3ccccc3OC)sc2c1
15,202 to 205 °C,Clc1ccc2c(c1)NC(c1ccncc1)c1cc(Cl)ccc1O2 (centres undefined)
16,134 to 136 °C,C=C(c1ccc(C)cc1)c1ccc(N2CCCC2)cc1
17,112 to 114 °C,Cc1cc(NS(=O)(=O)c2ccccc2)cc(C)c1S(=O)(=O)C(Cl)(Cl)[N+](=O)[O-]
18,211 to 212 °C,CCOCc1cc2c(=O)c(C(=O)NCc3ccc(Cl)cc3)cn(C)c2o1
19,258 °C,CCOC(=O)c1cn(C)c2ccc(C(=O)c3c(C)c(OC)c4ccccn34)cc2c1=O
20,157 to 159 °C,Cc1ccc(C2c3c(C)c(N4C(=O)c5cc(Cl)c(Cl)cc5C4=O)c(C)c(C)c3OC2(C)C)cc1 (centres undefined)
21,211 °C,ON=C1c2cc(Cl)ccc2-n2cccc21
22,210 to 214 °C,O=C1c2ccc([N+](=O)[O-])cc2COc2cc(Nc3ccc(F)cc3F)ccc21
23,155 to 156 °C,CCCCC(CC)n1nnc2c(Nc3c(Cl)cc(OC)cc3OC)nc(C)cc21 (centres undefined)
24,186 °C,CCOC(=O)N(c1ccc(Cl)cc1Cl)c1ccc(Cl)cc1-n1nc(C(=O)O)nc1CCl
25,106 to 107 °C,Cc1cc(C)c2c(n1)CC(c1ccccc1C)CC2=O (centres undefined)
26,134 to 135 °C,CC(=O)Nc1ccc(C(=O)OC2C=C(C)C(=O)CC(C)(C)C2O)cc1 (centres undefined)

row,melting point,SMILES
1,202 to 204 °C,Cc1cccc2ncc(C(=O)Nc3ccc(F)cc3)c(=O)n12
2,192 to 193 °C,CCOC(=O)c1cnn(-c2ccc(OC)c(C#N)c2)c1
3,106 to 111 °C,C[C@H](c1ccccc1)N(CC(=O)OC(C)(C)C)S(=O)(=O)c1ccc2c(Cl)cnc(NC(=N)N)c2c1
4,86 to 87 °C,Cc1ccc(C(=O)N2CCC(c3ccccc3)=N2)cn1
5,199 °C,COC(=O)c1cn(-c2cc(C(=O)Nc3cc(C(C)(C)C)cc(NS(C)(=O)=O)c3OC)cc(C)c2C)nn1
6,144 to 145 °C,COC(=O)c1ccc(Cc2c(OCc3ccc(-c4ccccc4-c4nnn[nH]4)cc3)cc(C)nc2C)cc1
7,193 to 195 °C,Cc1cc(=O)n(C)c2cc(OCCCN3CCC(NC(=O)c4ccccc4)CC3)ccc12
8,62 to 64 °C,O=C1c2ccc(CCCCc3ccccc3)cc2CCN1OC1CCCCO1 (centres undefined)
9,128 to 131 °C,CC(=O)CCCNC(=O)c1c2ccc(Cl)cc2c(-c2ccccc2)n1C
10,158 to 160 °C,CP(C)(=O)CNc1cc(Oc2ccc(C(F)(F)F)cn2)ccc1[N+](=O)[O-]
11,197 to 198 °C,COCCNS(=O)(=O)c1cccc(Nc2nccc(-c3sc(C)nc3C)n2)c1
12,218 to 222 °C,COC(=O)c1nn(Cc2cccc(O)c2)c2c1CCc1cc(OCc3cncnc3)ccc1-2
13,89 to 90 °C,O=C(c1cc2cc(OCCNC[C@H](O)COc3ccccc3Cl)ccc2o1)N1CCCC1
14,108 to 110 °C,COc1cc(C)cc(Sc2cccc(N)c2C#N)c1
15,126 to 127 °C,COc1cc(C(=O)N(C)C)ccc1OCCCN1CCC(c2noc3cc(F)ccc23)CC1
16,305 °C,O=C1CNc2cccc(Oc3cc(-c4ccc(C(F)(F)F)cc4)ncn3)c2N1
17,119 to 121 °C,COc1cc(-c2nc3ncccc3o2)cc(C(C)(C)C)c1
18,240 to 248 °C,Cc1ccc2c(c1)nnn2C1(c2ccccc2)OC(=O)c2cccc([N+](=O)[O-])c21 (centres undefined)
19,166 to 167 °C,Cc1nc(-c2ccc(C(F)(F)F)cc2)sc1CSc1ccc(OCC(=O)O)c2c1CCCC2
20,122 to 123 °C,CCn1nc(-c2ccc(OC)cc2)cc(C(=O)NC)c1=O
21,180 to 181 °C,Cc1nc2c(OCc3ccccc3Cl)nccc2n1C
22,238 to 240 °C,O=C(NCc1ccc(Cl)cc1)c1cnc2sccc2c1O
23,176 to 177 °C,OC(c1ccccc1)(c1ncc[nH]1)c1ccc(Cl)cc1Cl (centres undefined)
24,202 to 205 °C,CCC(=O)c1ccc(-c2ccc(=O)[nH]n2)cc1
25,147 to 148 °C,CCOC(=O)c1c(CN2CCOCC2)nc2cc(OCC)c(OCC)cc2c1-c1ccc(OC)c(OC)c1
26,82 °C,Nc1cccc(CNC(=O)C2Cc3ccccc3N2S(=O)(=O)c2ccc(-c3cccc(C(F)(F)F)c3)cc2)c1 (centres undefined)

# More lines, now with the values behind:
row,SMILES,melting point
1,O=C1CN=C(c2ccccc2F)c2ccccc2N1,181 to 182 °C
2,CC(C)n1c(=O)sc2cc(N)ccc21,146 to 148 °C
3,CC(C)C[C@@H](CO)NC(=O)[C@H](Cc1c[nH]cn1)NC(=O)[C@H](Cc1cccc2ccccc12)NC(=O)OCc1ccccc1 (Cbz-[1Nal]-His-[Leu(ol)]),157 to 159 °C
4,Cc1oc(-c2ccccc2)nc1CCOc1ccc(CC(Nc2ccccc2C(=O)c2ccccc2)C(=O)O)c2sccc12 (centres undefined),124 to 127 °C
5,CC(C(=O)n1c(=O)oc2ccccc21)C(O)CCCl (centres undefined),116 to 117 °C
6,CC(O)c1csc(S(N)(=O)=O)c1 (centres undefined),164 to 167 °C
7,O=c1[nH]c(=O)n(CCCCBr)c2cc([N+](=O)[O-])ccc12,202 to 203 °C
8,c1ccc2c(c1)CN(Cc1nc3ccccc3[nH]1)C2,172 to 174 °C
9,Oc1cc(Cl)cc(Br)c1O,71 to 73 °C
10,Nc1nc2ccnc(-c3cccc(C=O)c3)n2n1,205 to 208 °C
11,ON=Cc1ccc(N2CCC3(CC2)OCCO3)cc1,151 to 152 °C
12,COc1cc2cc(/C=N\O)sc2cc1OC,211 to 215 °C
13,O=C(O)C(=O)c1ccc(CCCNC(=O)c2ccc3ccccc3c2)cc1,126 to 128 °C
14,COC1=CCc2cccc(N)c2C1,84 to 85 °C
15,COC(=O)CCc1ccc(OCc2cccc(/C=C/c3ccccc3)c2)cc1,100 to 101 °C
16,CN(C)C(=O)Cc1c(-c2ccccc2)nn2cccnc12,156 to 158 °C
17,COC1CCC2C3CCC4CC(C)(O)CCC4(C)C3CCC12C (centres undefined),151 to 154 °C
18,CC1(C)CCc2ncc([N+](=O)[O-])cc2C1,99 to 101 °C
19,O=C(c1cc2cccc(NS(=O)(=O)c3cccs3)c2[nH]1)N(Cc1ccccc1)Cc1ccccc1,198 to 199 °C
20,N#CC(N)c1c(Cl)cccc1Cl (centres undefined),> 300 °C
21,CCOC(=O)c1cnc(-c2cccs2)s1,61 to 62 °C
22,CCC(C)C(NC(=O)OC)C(=O)NC(Cc1ccccc1)C(O)CN(Cc1ccc(-c2cncs2)cc1)NC(=O)OC(C)(C)C (centres undefined),163 to 166 °C
23,COC(Cn1cncn1)(c1ccc(F)cc1F)C(F)(F)SCCO (centres undefined),76 to 79 °C
24,COc1ccc(C(C)=O)cc1C12CC3CC(CC(C3)C1)C2,138 to 140 °C

row,SMILES,melting point
1,COC(=O)c1cc(C)cc(C#N)c1,68 to 69 °C
2,CCCCOCc1cc2ccccc2oc1=Nc1ccccc1,86 to 88 °C
3,CCc1ccc(C(=O)Nc2ccccc2O)cc1,103 to 105 °C
4,ClCCOc1ccc(/C=C/c2nc3ccccc3s2)cc1,92 to 94 °C
5,CCOC(=O)CNc1c(C)cc(C(O)(C(F)(F)Cl)C(F)(F)Cl)cc1C,102 to 104 °C
6,c1ccc2c(-c3cnc(CCC4CCCCN4)s3)c[nH]c2c1 (centres undefined),155 to 157 °C
7,CCOC(=O)CCCn1cc(C(=O)c2ccc(N)c(OCCCCl)c2)c2ccccc21,93 to 95 °C
8,COc1ccc2c(CNCCCCCCCCCCC(=O)O)cc3cc4c(cc3c2c1)OCO4,146 to 148 °C
9,COc1ccc2c(c1OC)CCC(NC(=O)CCCCC(=O)NCCc1ccccc1)C2 (centres undefined),191 to 193 °C
10,COC(=O)c1c(N)cc(OC)c(OC)c1OC,94 to 96 °C
11,CCOC(=O)Nc1cc(OCC)c(Br)cc1F,92.5 to 95 °C
12,CCC1(O)CC(=O)OCc2c1cc1n(c2=O)Cc2c-1nc1ccc(Cl)cc1c2-c1ccccc1F (centres undefined),> 250 °C
13,CC(C)(C)c1ccc(C(O)(c2ccccc2)c2ncc[nH]2)cc1 (centres undefined),166 °C
14,O=C(O)c1nc(NCC(c2ccccc2)c2ccccc2)c2nc[nH]c2n1,241 to 249 °C
15,N#Cc1cccc(C(=O)Cc2ccnnc2)c1,142 to 144 °C
16,Fc1ccccc1C(c1ccccc1)n1cccc1 (centres undefined),81 to 82.5 °C
17,CC(C)CC(NC(=O)C(Cc1c[nH]cn1)NC(=O)C(CC(=O)N1CCOCC1)Cc1cccc2ccccc12)C(O)C(=O)OC(C)C (mixture of isomers),95 to 98 °C
18,COc1cccc(-c2nc3sccn3c2-c2ccnc(N[C@@H]3CCCN(C[C@@H](O)CO)C3)n2)c1,106 to 108 °C
19,CC(O)c1cccc(Cl)c1Cl (centres undefined),53 °C
20,Oc1cc(-c2ccccc2)on1,150 to 151 °C
21,O=C(CC(=O)C(F)F)c1ccc(Br)s1,83.5 to 85 °C
22,CC(C)C(NC(=O)NCc1ccccc1)C(=O)NC(Cc1ccccc1)C(O)C(Cc1ccccc1)NC(=O)C(NC(=O)NCc1ccccc1)C(C)C (centres undefined),238 °C
23,CC(C)(C)C1=CC(=O)C2=C(CCCC2)C1=O,50 to 52 °C
